Reference: ChEMBL document CHEMBL1133070, “Novel 2,3,4,5-tetrahydro-1H-3-benzazepines with high affinity and selectivity for the dopamine D3 receptor” (Bioorg Med Chem Lett, 2000)

Experiments:
D(3) dopamine receptor = D(3) dopamine receptor (Homo sapiens, UniProt P35462); assay: biochemical; assay type: cell-based, CHO
Description: Binding affinity towards human Dopamine receptor D3 by displacement of [125I]iodosulpiride expressed in CHO cells

D(2) dopamine receptor = D(2) dopamine receptor (Homo sapiens, UniProt P14416); assay: biochemical; assay type: cell-based, CHO
Chain of D(2) dopamine receptor (P14416 whole entry): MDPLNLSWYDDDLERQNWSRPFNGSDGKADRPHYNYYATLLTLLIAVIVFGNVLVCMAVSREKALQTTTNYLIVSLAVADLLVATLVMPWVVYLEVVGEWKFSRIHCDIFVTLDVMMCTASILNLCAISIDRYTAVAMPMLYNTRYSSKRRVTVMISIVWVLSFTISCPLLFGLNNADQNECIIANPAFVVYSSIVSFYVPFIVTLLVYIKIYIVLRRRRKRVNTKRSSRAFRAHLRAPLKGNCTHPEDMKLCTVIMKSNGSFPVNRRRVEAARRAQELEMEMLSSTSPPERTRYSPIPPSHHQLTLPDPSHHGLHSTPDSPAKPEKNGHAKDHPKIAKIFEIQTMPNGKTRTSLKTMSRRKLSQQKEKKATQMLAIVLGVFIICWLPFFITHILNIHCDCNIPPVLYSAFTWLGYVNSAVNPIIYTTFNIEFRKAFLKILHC
Description: Binding affinity towards human Dopamine receptor D2 by displacement of [125I]iodosulpiride expressed in CHO cells

Chain of D(3) dopamine receptor (P35462 whole entry): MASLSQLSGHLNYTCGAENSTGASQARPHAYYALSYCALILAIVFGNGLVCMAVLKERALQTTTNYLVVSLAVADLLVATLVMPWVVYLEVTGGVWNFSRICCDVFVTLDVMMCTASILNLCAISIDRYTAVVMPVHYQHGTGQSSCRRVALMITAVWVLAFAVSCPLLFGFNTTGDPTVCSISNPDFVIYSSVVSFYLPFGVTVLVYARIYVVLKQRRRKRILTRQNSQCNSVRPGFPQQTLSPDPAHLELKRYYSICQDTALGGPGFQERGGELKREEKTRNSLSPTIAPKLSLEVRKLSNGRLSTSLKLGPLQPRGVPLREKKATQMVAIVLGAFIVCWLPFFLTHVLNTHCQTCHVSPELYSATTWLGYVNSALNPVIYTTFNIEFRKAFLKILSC

N#Cc1ccc2c(c1)CCN(CC[C@H]1CC[C@H](NC(=O)c3cc4ccccc4[nH]3)CC1)CC2
Ki (D(3) dopamine receptor): 15.8 nM
Ki (D(2) dopamine receptor): 316 nM

N#Cc1ccc2c(c1)CCN(CC[C@H]1CC[C@H](NC(=O)/C=C/c3ccccc3F)CC1)CC2
Ki (D(3) dopamine receptor): 10 nM
Ki (D(2) dopamine receptor): 631 nM

CC(=O)Nc1cccc(/C=C/C(=O)N[C@H]2CC[C@H](CCN3CCc4ccc(C#N)cc4CC3)CC2)c1
Ki (D(3) dopamine receptor): 3.16 nM
Ki (D(2) dopamine receptor): 501 nM

COc1cccc(/C=C/C(=O)N[C@H]2CC[C@H](CCN3CCc4ccc(C#N)cc4CC3)CC2)c1
Ki (D(3) dopamine receptor): 3.16 nM
Ki (D(2) dopamine receptor): 631 nM

N#Cc1ccc2c(c1)CCN(CC[C@H]1CC[C@H](NC(=O)c3ccc4ccccc4c3)CC1)CC2
Ki (D(3) dopamine receptor): 20 nM
Ki (D(2) dopamine receptor): 3160 nM

N#Cc1ccc2c(c1)CCN(CC[C@H]1CC[C@H](NC(=O)c3ccc4ccc(O)nc4c3)CC1)CC2
Ki (D(3) dopamine receptor): 10 nM
Ki (D(2) dopamine receptor): 501 nM

N#Cc1ccc2c(c1)CCN(CC[C@H]1CC[C@H](NC(=O)c3cccc4ncccc34)CC1)CC2
Ki (D(3) dopamine receptor): 12.6 nM
Ki (D(2) dopamine receptor): 2000 nM

CC(=O)Nc1cccc(/C=C/C(=O)N[C@H]2CC[C@H](CCN3CCc4ccc(C#N)cc4CC3)CC2)c1F
Ki (D(3) dopamine receptor): 3.98 nM
Ki (D(2) dopamine receptor): 501 nM

N#Cc1ccc2c(c1)CCN(CC[C@H]1CC[C@H](NC(=O)c3cccc4ccccc34)CC1)CC2
Ki (D(3) dopamine receptor): 20 nM
Ki (D(2) dopamine receptor): 1260 nM

N#Cc1ccc2c(c1)CCN(CC[C@H]1CC[C@H](NC(=O)c3ccc4c(c3)NC(=O)CO4)CC1)CC2
Ki (D(3) dopamine receptor): 6.31 nM
Ki (D(2) dopamine receptor): 794 nM

N#Cc1ccc2c(c1)CCN(CC[C@H]1CC[C@H](NC(=O)/C=C/c3cccc(F)c3)CC1)CC2
Ki (D(3) dopamine receptor): 6.31 nM
Ki (D(2) dopamine receptor): 398 nM

N#Cc1ccc2c(c1)CCN(CC[C@H]1CC[C@H](NC(=O)c3ccnc4ccccc34)CC1)CC2
Ki (D(3) dopamine receptor): 25.1 nM
Ki (D(2) dopamine receptor): 1260 nM

CC(=O)c1cccc(/C=C/C(=O)N[C@H]2CC[C@H](CCN3CCc4ccc(C#N)cc4CC3)CC2)c1
Ki (D(3) dopamine receptor): 3.98 nM
Ki (D(2) dopamine receptor): 200 nM

N#Cc1ccc2c(c1)CCN(CC[C@H]1CC[C@H](NC(=O)/C=C/c3ccc(F)cc3)CC1)CC2
Ki (D(3) dopamine receptor): 6.31 nM
Ki (D(2) dopamine receptor): 398 nM
